The nature of data set [1]: Tmax in female Wistar Han rat at 3 mg/kg,po by LC-MS/MS analysis. The conditions noted are these: in vivo. Format: ADME, organism-based.
Data set [2] in a line: Tmax in male minipig at 10 mg/kg,po by LC-MS/MS analysis. Format: ADME, organism-based, Sus scrofa domesticus. Conditions: pig, in vivo.
Data set [3] is described as follows: Half life in male cynomolgus monkey at 3 mg/kg,po by LC-MS/MS analysis. Format: ADME, organism-based, Macaca fascicularis. The conditions noted are these: in vivo.
Data set [4] in a line: AUC (0-infinity) in mouse plasma at 3 mg/kg,po. The format is ADME, organism-based. Also on record: dose 3 mg/kg, route po. The conditions noted are these: in vivo.
The nature of data set [5]: AUClast in male Wistar Han rat at 3 mg/kg,po by LC-MS/MS analysis. Format: ADME, organism-based. On the set-up: dose 3 mg/kg, route po. Conditions: in vivo.
Data set [6] can be described thus: Cmax in male cynomolgus monkey at 10 mg/kg,po by LC-MS/MS analysis. Conditions: in vivo. On the set-up: dose 10 mg/kg, route po. The format is ADME, organism-based, Macaca fascicularis.
Data set [7] can be described thus: AUClast in male cynomolgus monkey at 30 mg/kg,po by LC-MS/MS analysis. The conditions noted are these: in vivo. Also on record: dose 30 mg/kg, route po. Format: ADME, organism-based, Macaca fascicularis.
Data set [8] is described as follows: AUC (0-infinity) in mouse liver at 3 mg/kg,po. On the set-up: dose 3 mg/kg, route po. The format is ADME, organism-based.
Data set [9] is described as follows: Half life in male Wistar Han rat at 10 mg/kg,po by LC-MS/MS analysis. Format: ADME, organism-based. The conditions noted are these: in vivo.
Data set [10] in a line: Cmax in male cynomolgus monkey at 30 mg/kg,po by LC-MS/MS analysis. The format is ADME, organism-based, Macaca fascicularis. Also on record: dose 30 mg/kg, route po. Conditions: in vivo.
The nature of data set [11]: Half life in female cynomolgus monkey at 10 mg/kg,po by LC-MS/MS analysis. The format is ADME, organism-based, Macaca fascicularis. Conditions: in vivo.
Data set [12] can be described thus: Half life in female cynomolgus monkey at 3 mg/kg,po by LC-MS/MS analysis. The format is ADME, organism-based, Macaca fascicularis. Conditions: in vivo.
A short description of data set [13]: Tmax in male cynomolgus monkey at 3 mg/kg,po by LC-MS/MS analysis. The format is ADME, organism-based, Macaca fascicularis. The conditions noted are these: in vivo.
The nature of data set [14]: AUClast in male cynomolgus monkey at 10 mg/kg,po by LC-MS/MS analysis. The format is ADME, organism-based, Macaca fascicularis. Also on record: dose 10 mg/kg, route po. Conditions: in vivo.
A short description of data set [15]: Tmax in male cynomolgus monkey at 30 mg/kg,po by LC-MS/MS analysis. The conditions noted are these: in vivo. Format: ADME, organism-based, Macaca fascicularis.
A short description of data set [16]: Clearance in rat hepatocyte at 2 uM measured upto 120 mins by LC-MS/MS analysis. The format is ADME, cell-based. The conditions noted are these: hepatocytes.
Data set [17] in a line: AUClast in minipig at 2 mg/kg,iv by LC-MS/MS analysis. The format is ADME, organism-based, Sus scrofa domesticus. Also on record: dose 2 mg/kg, route iv. The conditions noted are these: pig, in vivo.

For orientation: Tmax means the time at which the peak concentration occurs. The term half-life denotes the time needed for the level to fall by half in the phase considered. A word on the AUC: it is concentration integrated over time. A word on the AUC(0-t): it is the area under the concentration-time curve up to a stated or last time point. A word on the Cmax: it is the maximum level reached in the sampled fluid or tissue. A word on the AUC(0-inf): it is the area under the concentration-time curve extrapolated to infinity.

On to `CCOC(=O)C1=C(CN2CCN3C(=O)N(CC(C)(C)C(=O)O)C[C@@H]3C2)NC(c2nccs2)=N[C@H]1c1cccc(F)c1C` [LINVENCORVIR], for which the Tmax in [1] came out at 0.5 h; in data set [2] it was 1 h; in [13], 0.25 h; in data set [15], 2 h. Also, the half-life in data set [3] was 6.25 h; in data set [9], 1.43 h; in [11], 8.13 h; in data set [12], 5.92 h. In data set [4], this compound registered an AUC of 275 ng·h/mL. The AUC(0-t) in [5] worked out at 209 ng·h/mL; in data set [7], 7120 ng·h/mL; in data set [14] it was 1430 ng·h/mL; in [17] it was 1370 ng·h/mL. Further, the Cmax in data set [6] was 298 ng/mL; in data set [10], 2870 ng/mL. Moreover, the AUC(0-inf) in data set [8] amounted to 8850 ng·h/mL. In [16], the CLhep predicted at 2 µM is 11 mL/min/kg.

These data come from ChEMBL document CHEMBL5316357, “Discovery of Linvencorvir (RG7907), a Hepatitis B Virus Core Protein Allosteric Modulator, for the Treatment of Chronic HBV Infection” (J Med Chem, 2023).
